Results taken from patent EP0289070A1, “Tertiary arylethyl amine derivatives having opiate-antagonistic activity” (DUPHAR INTERNATIONAL RESEARCH B.V, priority 1987, dated 1988).
Read-outs that look alike come from different tables or passages of the source.

Columns and labels:
[1] = target: cholinergic muscarine receptors; type: binding, rat
[2] = target: (mainly u.-type) opiate receptors (Rattus norvegicus, UniProt P33535); assay: Affinity to opiate receptors: [3H]-naloxone displacement in rat brain homogenates; type: binding
Sequence of (mainly u.-type) opiate receptors (P33535 whole entry): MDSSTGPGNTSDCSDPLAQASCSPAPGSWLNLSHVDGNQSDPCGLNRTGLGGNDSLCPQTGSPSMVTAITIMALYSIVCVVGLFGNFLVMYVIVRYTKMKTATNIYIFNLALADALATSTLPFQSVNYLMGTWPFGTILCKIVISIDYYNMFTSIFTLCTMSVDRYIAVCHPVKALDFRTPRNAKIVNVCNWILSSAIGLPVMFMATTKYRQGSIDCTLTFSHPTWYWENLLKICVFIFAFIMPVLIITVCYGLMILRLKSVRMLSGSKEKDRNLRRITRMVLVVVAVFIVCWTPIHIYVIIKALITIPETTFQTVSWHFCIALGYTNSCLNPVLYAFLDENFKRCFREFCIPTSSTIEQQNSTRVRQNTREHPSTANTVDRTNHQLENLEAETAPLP

[3] = [^3H] QNB displacement expressed in Ki; homogenates of rat brains; read-out: Affinity to muscarine receptors 2)

SMILES	Ki [1, 3] [nM]	other results
CCCN(CCCC(=O)C1CCCCC1)C(C)Cc1ccc(O)cc1 (racemic) [a]	5.2	
CCN(CCCC(=O)C1CCCCC1)C(C)Cc1ccc(O)cc1 (racemic) [b]	9.6	
CCCC(=O)CCCN(CC)C(C)Cc1ccc(OC)cc1 (racemic) [e, reference compound]	28	
CCN(CCCC(=O)C1CCCCC1)C(C)Cc1ccc(Cl)cc1 (racemic) [f, reference compound]	8.3	
CCN(CCCC(=O)C1CCCCC1)C(C)Cc1ccc(OC)cc1 (racemic) [g, reference compound]	2.7	
CN1[C@@H]2CC[C@H]1C[C@@H](OC(=O)C(CO)c1ccccc1)C2 (stereo partly shown) [atropine, reference compound]		Ki ([1]; read-out: Affinity to muscarine receptors 2)): 1.4 nM
CCN(CCCC(=O)C1CCCCC1)[C@H](C)Cc1ccc(O)cc1 [c]	450	opiate-antagonistic activity [2]: found substantially entirely in the R isomer
CCN(CCCC(=O)C1CCCCC1)[C@@H](C)Cc1ccc(O)cc1 [d]	4.1	muscarinolytic activity ([1]; pure R and S isomers of racemic compound b compared): found substantially exclusively in the S isomer
